Structures can show the parent of a compound that is named as a salt.
Assays:
[1] = Pharmacokinetics of dry powder administered subcutaneously via dorsal incision (Example 5); type: in vivo, Sprague Dawley rats; settings: dry powder 230, via dorsal incision, bupivacaine salt 149 vs lidocaine salt 226 mg/kg
Description: Terminal collections were performed via vena cava.
The test articles were drug compositions designated as Test Articles A and B, which were administered as a single subcutaneous dose via dorsal incision to female CD (Sprague Dawley) rats.
(§1) Ten (10) female, jugular vein catheterized (JVC) CD rats initially were assigned to two dose groups consisting of five animals per group.
(§2) Each test article was provided as a powder in an individual vial.

[2] = system: female Sprague Dawley (CD) rats; settings: rat, in vivo, sc
Description: (§3) Clinical observations were performed daily. […] Other characteristics observed included appearance of skin and fur, appearance of eyes and mucous membranes, urine and fecal output, and changes in locomotor behavior. The times of observation were approximately the same each day, and the date of each observation was recorded.
Animals were euthanized at the end of the study via carbon dioxide inhalation (CO2) followed by thoracotomy. Gross necropsy of the dose sites were performed and they were collected for histopathology. Photographs were taken for any observation of tissue or reaction to treatment. Carcasses were discarded without further examination.
Twenty (20) female, jugular vein catheterized (JVC) Sprague Dawley (CD) rats initially were assigned to four dose groups consisting of eight (Test Articles A and B) or two (Test Articles B and C) animals per group. The animals received a single subcutaneous dose of the test article delivered to the dorsal subcutaneum of the animals via a dorsal skin incision.
Test articles were provided as a powder in individual vials (Test Articles A and B), or as a solution (Test Articles C and D). On the day of testing, each animal's dose was individually calculated, weighed or measured, and recorded. […]

[3] = system: female Sprague-Dawley rats; settings: rat, in vivo, sc
Description: as §3
The vehicle was a hyaluronic acid vehicle. The animals received a single subcutaneous dose of the test article or vehicle delivered to the dorsal area of the animals.
In addition, dose sites were exposed for gross evaluation of residual test articles and local response to the injected materials.

[4] = system: female CD (Sprague Dawley) rats; settings: rat, in vivo
Description: Clinical observations were performed daily.
as §1, §2

Cmax compared to the lidocaine particles [1] | duration of release compared to the lidocaine particles ([1]; listed as bupivacaine particles) | duration of release compared to the lidocaine particles ([1]; listed as bupivaciane particles) | SMILES | vascularization surrounding the incision sites on the subcutaneous skin layers [2] | clinical observations [3] | tolerability of single subcutaneous dose administered through a dorsal incision [4]
lower | longer | significantly longer | CCCCN1CCCCC1C(=O)Nc1c(C)cccc1C (stereo not drawn) [Test Article B, Bupivacaine tridecafluorohexane-sulfonate salt 230] |  |  | 
 |  |  | CCN(CC)CC(=O)Nc1c(C)cccc1C.O=S(=O)(O)C(F)(F)C(F)(F)C(F)(F)C(F)(F)C(F)(F)C(F)(F)C(F)(F)C(F)(F)F [Test Article B] | slight to moderate | slightly dehydrated and hypoactive | tolerated
